As usually defined, the IC50 is the concentration needed to halve the response being measured. A low value points to greater potency in that assay. Usually Ki stands for the dissociation constant of the complex between target and ligand, obtained from inhibition or displacement.

The values below come from patent publication US20240391936A1, “TETRAHYDROTHIENO PYRIDINE DERIVATIVES AS DDRS INHIBITORS” (CHIESI FARMACEUTICI S.P.A., priority 2021, published 2024).

In assay [1] the target is T1, DDR1 (Homo sapiens, UniProt Q08345). Nature of the assay: DDR1 cell based assay (PathHunter U2OS DDR1 assay). More on the design: host or cells: U2OS-DDR1 (PathHunter). Particulars: U2OS-DDR1 cells, bovine Type II Collagen 20 μg/ml. The method, then: The inhibition of DDR1 receptor activation by compounds was evaluated by PathHunter® U2OS DDR1 assay (Eurofins DiscoverX), according to the manufacturer's instructions. Briefly, U2OS-DDR1 cells were seeded in white 384-well plates at a density of 5000 cells/well and incubated for 2 hours at 37° C. and 5% CO2. Cells were then treated with compounds at different concentrations and incubated for 30 minutes, before stimulation with bovine Type II Collagen 20 μg/ml and incubation overnight at 37° C. and 5% CO2. PathHunter Detection Reagents were prepared according to the protocol provided by DiscoverX and 20 μl/well of this mix were added to each well. After incubating the plates for 1 hour at room temperature in the dark, luminescence signal was acquired with a plate reader. Raw data were normalized to vehicle control (0% for normalization) and positive control (100% for normalization; cells treated with 20 μg/ml collagen II) and IC50 parameters were calculated in GraphPad Prism 8.0 software, using sigmoidal dose-response curve fitting with variable slope.
T1 sequence (Q08345 19-913): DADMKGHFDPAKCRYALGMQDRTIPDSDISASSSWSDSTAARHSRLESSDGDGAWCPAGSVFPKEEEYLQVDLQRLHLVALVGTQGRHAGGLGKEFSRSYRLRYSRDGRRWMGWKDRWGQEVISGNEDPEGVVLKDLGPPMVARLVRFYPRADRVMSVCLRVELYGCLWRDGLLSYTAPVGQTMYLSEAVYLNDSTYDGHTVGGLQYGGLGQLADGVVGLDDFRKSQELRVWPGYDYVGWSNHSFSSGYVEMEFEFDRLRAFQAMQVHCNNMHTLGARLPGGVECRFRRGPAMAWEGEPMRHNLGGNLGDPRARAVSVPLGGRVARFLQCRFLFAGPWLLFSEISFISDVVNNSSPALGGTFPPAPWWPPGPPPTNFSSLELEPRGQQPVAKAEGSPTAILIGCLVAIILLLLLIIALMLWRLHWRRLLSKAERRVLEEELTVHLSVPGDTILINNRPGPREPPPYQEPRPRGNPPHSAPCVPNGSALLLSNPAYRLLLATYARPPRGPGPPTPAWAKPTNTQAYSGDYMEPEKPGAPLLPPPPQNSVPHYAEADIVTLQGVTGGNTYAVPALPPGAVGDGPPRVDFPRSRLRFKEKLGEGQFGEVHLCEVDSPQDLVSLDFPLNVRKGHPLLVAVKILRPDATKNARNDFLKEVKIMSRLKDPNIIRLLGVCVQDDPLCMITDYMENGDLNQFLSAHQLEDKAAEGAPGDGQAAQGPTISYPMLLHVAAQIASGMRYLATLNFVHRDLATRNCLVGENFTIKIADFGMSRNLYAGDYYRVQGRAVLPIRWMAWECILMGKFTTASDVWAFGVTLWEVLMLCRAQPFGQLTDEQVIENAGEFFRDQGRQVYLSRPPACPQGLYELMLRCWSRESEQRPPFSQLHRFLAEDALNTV

The target of assay [2] is T2, DDR2 (Homo sapiens, UniProt Q16832).
T2 sequence (Q16832 22-855): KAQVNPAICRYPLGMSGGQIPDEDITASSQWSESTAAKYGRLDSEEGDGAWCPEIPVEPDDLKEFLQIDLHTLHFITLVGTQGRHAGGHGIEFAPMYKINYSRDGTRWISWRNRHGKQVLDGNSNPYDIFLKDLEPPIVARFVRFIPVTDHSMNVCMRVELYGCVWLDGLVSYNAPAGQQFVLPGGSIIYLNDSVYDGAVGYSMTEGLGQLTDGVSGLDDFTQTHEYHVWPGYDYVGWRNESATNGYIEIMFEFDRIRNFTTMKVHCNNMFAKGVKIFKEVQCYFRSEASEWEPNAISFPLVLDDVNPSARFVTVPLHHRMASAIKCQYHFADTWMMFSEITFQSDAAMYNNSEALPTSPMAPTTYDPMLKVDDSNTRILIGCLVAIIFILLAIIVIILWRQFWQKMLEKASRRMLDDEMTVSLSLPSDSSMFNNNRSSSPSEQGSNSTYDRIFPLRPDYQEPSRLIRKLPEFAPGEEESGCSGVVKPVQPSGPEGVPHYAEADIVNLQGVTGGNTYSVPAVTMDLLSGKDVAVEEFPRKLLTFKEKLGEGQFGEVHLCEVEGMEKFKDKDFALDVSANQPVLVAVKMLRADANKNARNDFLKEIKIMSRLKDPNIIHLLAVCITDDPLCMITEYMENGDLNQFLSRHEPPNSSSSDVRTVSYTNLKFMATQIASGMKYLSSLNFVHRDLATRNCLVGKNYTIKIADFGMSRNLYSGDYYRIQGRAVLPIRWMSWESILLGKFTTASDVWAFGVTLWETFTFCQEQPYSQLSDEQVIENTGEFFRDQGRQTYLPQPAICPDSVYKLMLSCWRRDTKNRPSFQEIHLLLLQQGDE
Nature of the assay: DDR2 binding assay (LanthaScreen Europium Kinase Binding assay). More on the design: purchased Life Technologies. Particulars: binding assay, 5 nM DDR2, 10 nM Kinase Tracer 178; Ki from IC50 by Cheng-Prusoff; read-out: Ki DDR2. The method, then:
(§1) DDR1 and DDR2 binding assays were performed using Life Technologies LanthaScreen™ Europium Kinase Binding assay. The compounds were incubated with 5 nM DDR1 (Carna Biosciences) or 5 nM DDR2 (Life Technologies) for 1 hour at room temperature in white 384-well OptiPlate (PerkinElmer), containing 20 nM or 10 nM Kinase Tracer 178 respectively and 2 nM Europium labelled anti-GST antibody (Life Technologies) in assay buffer (50 mM HEPES pH 7.5, 10 mM MgCl2, 1 mM EGTA and 0.01% BRIJ35).
(§2) The ratio of fluorescence emission 665 nm/615 nm after excitation at 340 nm was obtained using the Tecan Spark 20M plate reader. IC50 values were determined in GraphPad Prism 7.0 software, using 4 parameter model: log(inhibitor) vs. response. IC50 values were converted in Ki using the Cheng-Prusoff equation
A general note: Time-resolved FRET reads energy transfer from a long-lived donor to a nearby acceptor.

Assay [3] deals with T1, DDR1. The assay can be described thus: DDR1 binding assay (LanthaScreen Europium Kinase Binding assay). On the set-up: purchased Carna Biosciences. Particulars: binding assay, 5 nM DDR1, 20 nM Kinase Tracer 178; Ki from IC50 by Cheng-Prusoff; read-out: Ki DDR1. The method, then: as §1, §2

Turning to `O=C(Nc1cccc(C(F)(F)F)c1)c1csc2c1CCN(Cc1cnc3ccnn3c1)C2` [Example 88, 6-(pyrazolo[1,5-a]pyrimidin-6-ylmethyl)-N-(3-(trifluoromethyl)phenyl)-4,5,6,7-tetrahydrothieno[2,3-c]pyridine-3-carboxamide], in assay [1], the IC50 is < 25 nM. Moreover, the inhibition constant Ki in assay [2] and in assay [3] was < 25 nM throughout.
As for `Cn1nc(NC(=O)c2csc3c2CCN(Cc2cnc4[nH]ccc4c2)C3)cc1C(F)(F)F` [Example 169, 6-((1H-pyrrolo[2,3-b]pyridin-5-yl)methyl)-N-(1-methyl-5-(trifluoromethyl)-1H-pyrazol-3-yl)-4,5,6,7-tetrahydrothieno[2,3-c]pyridine-3-carboxamide], the IC50 in assay [1] was < 25 nM. For the same compound, the Ki in assay [2] and in assay [3] was < 25 nM throughout.
On to `CC(C)(C)c1cc(NC(=O)c2csc3c2CCN(C(=O)c2cnc4ccccn24)C3)ccn1` [Example 37, N-(2-(tert-butyl)pyridin-4-yl)-6-(imidazo[1,2-a]pyridine-3-carbonyl)-4,5,6,7-tetrahydrothieno[2,3-c]pyridine-3-carboxamide], for which the IC50 in assay [1] was in the range of 25 to 50 nM. The Ki in assay [2] and in assay [3] was < 25 nM in each case.
The compound `CN(C)CCOc1cc(NC(=O)c2csc3c2CCN(C(=O)c2cnc4ccccn24)C3)cc(C(F)(F)F)c1` [Example 25, N-(3-(2-(dimethylamino)ethoxy)-5-(trifluoromethyl)phenyl)-6-(imidazo[1,2-a]pyridine-3-carbonyl)-4,5,6,7-tetrahydrothieno[2,3-c]pyridine-3-carboxamide] yielded an IC50 in assay [1] of 25 to 50 nM. Also, the inhibition constant (Ki) in assay [2] and in assay [3] was < 25 nM in each case.
As for `O=C(Nc1cc(OCCN2CCCC2)cc(C(F)(F)F)c1)c1csc2c1CCN(C(=O)c1cnc3ccccn13)C2` [Example 26, 6-(imidazo[1,2-a]pyridine-3-carbonyl)-N-(3-(2-(pyrrolidin-1-yl)ethoxy)-5-(trifluoromethyl)phenyl)-4,5,6,7-tetrahydrothieno[2,3-c]pyridine-3-carboxamide], the 50% inhibitory concentration (IC50) in assay [1] was 25 to 50 nM. In addition, the Ki in assay [2] and in assay [3] was < 25 nM throughout.
For `CN1CCN(Cc2ccc(NC(=O)c3csc4c3CCN(C(=O)c3cnc5ccccn35)C4)cc2C(F)(F)F)CC1` [Example 18, 6-(imidazo[1,2-a]pyridine-3-carbonyl)-N-(4-((4-methylpiperazin-1-yl)methyl)-3-(trifluoromethyl)phenyl)-4,5,6,7-tetrahydrothieno[2,3-c]pyridine-3-carboxamide], the IC50 in assay [1] was 50 to 80 nM. In addition, the Ki in assay [2] and in assay [3] was < 25 nM each time.
Consider `CN(C)[C@@H]1CCN(C(=O)c2cc(NC(=O)c3csc4c3CCN(C(=O)c3cnc5ccccn35)C4)cc(C(F)(F)F)c2)C1` [Example 130, (R)-N-(3-(3-(dimethylamino)pyrrolidine-1-carbonyl)-5-(trifluoromethyl)phenyl)-6-(imidazo[1,2-a]pyridine-3-carbonyl)-4,5,6,7-tetrahydrothieno[2,3-c]pyridine-3-carboxamide], for which the 50% inhibitory concentration (IC50) in assay [1] was 50 to 80 nM. The inhibition constant Ki in assay [2] and in assay [3] was < 25 nM throughout.
In turn, `Cn1nc(C2CCC2)cc1NC(=O)c1csc2c1CCN(C(=O)c1cnc3ccccn13)C2` [Example 35, N-(3-cyclobutyl-1-methyl-1H-pyrazol-5-yl)-6-(imidazo[1,2-a]pyridine-3-carbonyl)-4,5,6,7-tetrahydrothieno[2,3-c]pyridine-3-carboxamide] registered a concentration for half-maximal inhibition (IC50) in assay [1] of 25 to 50 nM. The Ki in assay [2] and in assay [3] was < 25 nM throughout.
For `O=C(Nc1cc(CN2CCCC2)cc(C(F)(F)F)c1)c1csc2c1CCN(C(=O)c1cnc3ccccn13)C2` [Example 11], the IC50 in assay [1] was < 25 nM. The Ki in assay [2] and in assay [3] was < 25 nM in each case.
Compound `Cc1ccn2c(C(=O)N3CCc4c(C(=O)Nc5cc(C(C)(C)C)nn5C)csc4C3)cnc2c1` [Example 79, N-(5-tert-butyl-2-methyl-pyrazol-3-yl)-6-(7-methylimidazo[1,2-a]pyridine-3-carbonyl)-5,7-dihydro-4H-thieno[2,3-c]pyridine-3-carboxamide] yielded a 50% inhibitory concentration (IC50) in assay [1] of 25 to 50 nM. For the same compound, the Ki in assay [2] and in assay [3] was < 25 nM each time.
`CC(C)(C)c1cc(NC(=O)c2csc3c2CCN(C(=O)c2cnn4ccncc24)C3)no1` [Example 175, N-(5-(tert-butyl)isoxazol-3-yl)-6-(pyrazolo[1,5-a]pyrazine-3-carbonyl)-4,5,6,7-tetrahydrothieno[2,3-c]pyridine-3-carboxamide]: the IC50 in assay [1] lay in the range of 50 to 80 nM. Moreover, the Ki in assay [2] and in assay [3] was < 25 nM each time.
Take `O=C(Nc1cncc(OC(F)(F)F)c1)c1csc2c1CCN(C(=O)c1cnn3ccncc13)C2` [Example 128, 6-(pyrazolo[1,5-a]pyrazine-3-carbonyl)-N-(5-(trifluoromethoxy)pyridin-3-yl)-4,5,6,7-tetrahydrothieno[2,3-c]pyridine-3-carboxamide]: in assay [1], the IC50 is < 25 nM. The Ki in assay [2] and in assay [3] was < 25 nM each time.
In the case of `O=C(Nc1cccc(C(F)(F)F)c1)c1csc2c1CCN(Cc1cnc3cccnn13)C2` [Example 87, 6-(imidazo[1,2-b]pyridazin-3-ylmethyl)-N-(3-(trifluoromethyl)phenyl)-4,5,6,7-tetrahydrothieno[2,3-c]pyridine-3-carboxamide], the IC50 in assay [1] was in the range of 50 to 80 nM. The Ki in assay [2] and in assay [3] was < 25 nM throughout.
For `O=C(Nc1cc(CN2CCC23COC3)cc(C(F)(F)F)c1)c1csc2c1CCN(C(=O)c1cnc3ccccn13)C2` [Example 49, N-(3-((6-oxa-1-azaspiro[3.3]heptan-1-yl)methyl)-5-(trifluoromethyl)phenyl)-6-(imidazo[1,2-a]pyridine-3-carbonyl)-4,5,6,7-tetrahydrothieno[2,3-c]pyridine-3-carboxamide], in assay [1], the half-maximal inhibitory concentration (IC50) is < 25 nM. Also, the Ki in assay [2] and in assay [3] was < 25 nM throughout.
Compound `CN1CCN(c2n[nH]c3ncc(CN4CCc5c(C(=O)Nc6cncc(C(F)(F)F)c6)csc5C4)cc23)CC1` [Example 149, 6-((3-(4-methylpiperazin-1-yl)-1H-pyrazolo[3,4-b]pyridin-5-yl)methyl)-N-(5-(trifluoromethyl)pyridin-3-yl)-4,5,6,7-tetrahydrothieno[2,3-c]pyridine-3-carboxamide] showed a 50% inhibitory concentration (IC50) in assay [1] of 25 to 50 nM. The Ki in assay [2] and in assay [3] was < 25 nM in each case.
With `CC1Cc2c(C(=O)Nc3cccc(C(F)(F)F)c3)csc2CN1Cc1cnc2cnccn12` (single isomer, unassigned) [Example 105, 6-(imidazo[1,2-a]pyrazin-3-ylmethyl)-5-methyl-N-(3-(trifluoromethyl)phenyl)-4,5,6,7-tetrahydrothieno[2,3-c]pyridine-3-carboxamide], the IC50 in assay [1] is 50 to 80 nM. Further, the Ki in assay [2] and in assay [3] was < 25 nM in each case.
